Source: patent US8217058B2, “Substituted piperidino phenyloxazolidinones” (Wockhardt Ltd., priority 2006, dated 2012)
Converted amounts (≈) assume the structure as drawn.

Columns and labels:
[1] = tested on: Streptococcus group C ATCC 12388; assay: MIC test (agar dilution); format: cell-based; settings: Mueller Hinton agar, 24 h at 35° C.
[2] = tested on: Staphylococcus aureus STA-014; assay: MIC test (agar dilution); format: cell-based; settings: Mueller Hinton agar, 24 h at 35° C.
[3] = tested on: Enterococcus faecalis ATCC 29212; assay: MIC test (agar dilution); format: cell-based; settings: Mueller Hinton agar, 24 h at 35° C.
[4] = tested on: Streptococcus pneumoniae ATCC 49619; assay: MIC test (agar dilution); format: cell-based; settings: Mueller Hinton agar, 24 h at 35° C.
[5] = tested on: Streptococcus group B ATCC 12386; assay: MIC test (agar dilution); format: cell-based; settings: Mueller Hinton agar, 24 h at 35° C.
[6] = Oral pharmacokinetic study in dog, serum concentrations by HPLC; format: in vivo; parameters: Serum concentration: unit not given here; settings: for Serum concentration: dog, 15 mg/kg p.o
Experimental: Oral (15 mg/kg p.o) pharmacokinetic studies were done in dog. Blood samples were collected at time points of 0, 0.08 (not for oral), 0.25, 0.50, 1.0, 1.5, 2.0, 3.0, 4.0, 5.0, 6.0, 8.0, 10.0, 12.0 and 24.0 h. To facilitate IV dosing and collection of blood samples, the dogs were implanted with cannula in cephalic vein. Serum obtained from blood samples was used for HPLC-based analysis.
Serum samples were extracted by solid phase extraction technique using Water's OASIS HLB cartridges. An HPLC-Diode array detection system was used for analysis. Prepared samples were chromatographed on a YMC-AM reversed phase column (150×4.6 mm ID; 5 μm) using an isocratic mobile phase acetate buffer (50 mmol ammonium acetate pH 6.6) acetonitrile, 66:34% v/v (for a representative compound of the invention) at a flow rate of 1 ml/min, measured at λmax 254 nm. Independently prepared analytical standards and quality control samples were analyzed with each set of unknown samples.

[7] = tested on: Staphylococcus aureus MRSA-032; assay: MIC test (agar dilution); format: cell-based; settings: Mueller Hinton agar, 24 h at 35° C.
Experimental: The in vitro MIC methods of test compounds were determined essentially as described in WO 95/25106, U.S. Pat. No. 5,668,286 and EP 0 750 618 B1.
Overnight grown cultures of MRSA-032 organisms in Tryptic Soya broth were diluted in Mueller Hinton Broth to give optical density matching with MacFarland tube 0.5 standard. Cultures were further diluted 1:10 in Mueller Hinton broth. Using Denley's multipoint inoculator, 10^4 cells were deposited on Mueller Hinton agar (Difco) containing range of 2 fold dilutions of test compounds. […] MIC is defined as minimum drug concentration that inhibits test organisms.

[8] = tested on: Streptococcus group F ATCC 12392; assay: MIC test (agar dilution); format: cell-based; settings: Mueller Hinton agar, 24 h at 35° C.
[9] = tested on: Staphylococcus aureus ATCC 29213; assay: MIC test (agar dilution); format: cell-based; settings: Mueller Hinton agar, 24 h at 35° C.
[10] = tested on: Staphylococcus aureus Smith; assay: MIC test (agar dilution); format: cell-based; settings: Mueller Hinton agar, 24 h at 35° C.
[11] = tested on: Staphylococcus aureus Mu-50 VISA; assay: MIC test (agar dilution); format: cell-based; settings: Mueller Hinton agar, 24 h at 35° C.
[12] = tested on: Staphylococcus aureus ATCC 25923; assay: MIC test (agar dilution); format: cell-based; settings: Mueller Hinton agar, 24 h at 35° C.
[13] = tested on: Enterococcus faecium Efa-332 VRE; assay: MIC test (agar dilution); format: cell-based; settings: Mueller Hinton agar, 24 h at 35° C.
[14] = tested on: Staphylococcus epidermidis STE-118; assay: MIC test (agar dilution); format: cell-based; settings: Mueller Hinton agar, 24 h at 35° C.
[15] = tested on: Staphylococcus epidermidis STE-110 MRSE; assay: MIC test (agar dilution); format: cell-based; settings: Mueller Hinton agar, 24 h at 35° C.
[16] = tested on: Enterococcus faecalis Efe-406 VRE; assay: MIC test (agar dilution); format: cell-based; settings: Mueller Hinton agar, 24 h at 35° C.
[17] = tested on: Streptococcus group G ATCC 12394; assay: MIC test (agar dilution); format: cell-based; settings: Mueller Hinton agar, 24 h at 35° C.
[18] = tested on: Streptococcus pneumoniae ATCC 6303; assay: MIC test (agar dilution); format: cell-based; settings: Mueller Hinton agar, 24 h at 35° C.
[19] = tested on: Enterococcus faecium Efa-303; assay: MIC test (agar dilution); format: cell-based; settings: Mueller Hinton agar, 24 h at 35° C.
[20] = tested on: Streptococcus agalactiae ATCC 13813; assay: MIC test (agar dilution); format: cell-based; settings: Mueller Hinton agar, 24 h at 35° C.
[21] = tested on: Streptococcus pyogenes ATCC 25147; assay: MIC test (agar dilution); format: cell-based; settings: Mueller Hinton agar, 24 h at 35° C.

Question: What does the source list for `COCC1(O)CCN(c2c(F)cc(N3C[C@H](CNC(C)=O)OC3=O)cc2F)CC1` [Example-11, (5S)—N-{3-[3,5-difluoro-4-(4-hydroxy-(4-methoxymethyl)-piperidin-1yl)phenyl]-2-oxo-oxazolidin-5-ylmethyl}-acetamide]?
Answer: MIC [1]: 2 µg/mL (≈ 4.84 µM); MIC [2]: 4 µg/mL (≈ 9.68 µM); MIC [3]: 2 µg/mL (≈ 4.84 µM); MIC [4]: 2 µg/mL (≈ 4.84 µM); MIC [5]: 2 µg/mL (≈ 4.84 µM); Serum concentrations relative to the MIC value ([6]; dog pharmacokinetic study, up to 24 h post dosing): significantly higher serum concentrations above the MIC value up to 24 h post dosing; Serum concentration ([6]; time point 0.0 hr): 0.0; Serum concentration ([6]; time point 0.25 hr): 4.14; Serum concentration ([6]; time point 0.5 hr): 5.41; Serum concentration ([6]; time point 1.0 hr): 8.76; Serum concentration ([6]; time point 2.0 hr): 11.42; Serum concentration ([6]; time point 3.0 hr): 10.97; Serum concentration ([6]; time point 4.0 hr): 10.37; Serum concentration ([6]; time point 5.0 hr): 8.81; Serum concentration ([6]; time point 6.0 hr): 7.28 ± 2.14; Serum concentration ([6]; time point 8.0 hr): 5.82 ± 1.58; Serum concentration ([6]; time point 10.0 hr): 4.50 ± 1.03; Serum concentration ([6]; time point 12.0 hr): 3.47 ± 1.25; Serum concentration ([6]; time point 24.0 hr): 2.19 ± 1.91; MIC [7]: 4 µg/mL (≈ 9.68 µM); MIC [8]: 2 µg/mL (≈ 4.84 µM); MIC [9]: 2 µg/mL (≈ 4.84 µM); MIC [10]: 2 µg/mL (≈ 4.84 µM); MIC [11]: 2 µg/mL (≈ 4.84 µM); MIC [12]: 2 µg/mL (≈ 4.84 µM); MIC [13]: 2 µg/mL (≈ 4.84 µM); MIC [14]: 1 µg/mL (≈ 2.42 µM); MIC [15]: 1 µg/mL (≈ 2.42 µM); MIC [16]: 4 µg/mL (≈ 9.68 µM); MIC [17]: 2 µg/mL (≈ 4.84 µM); MIC [18]: 2 µg/mL (≈ 4.84 µM); MIC [19]: 4 µg/mL (≈ 9.68 µM); MIC [20]: 2 µg/mL (≈ 4.84 µM); MIC [21]: 2 µg/mL (≈ 4.84 µM)
